# Experimental data reported in the NIST ThermoML archive (doi:10.1021/je060419q).
# Numbers after ± are expanded uncertainties.
# Conditions: Transpiration method
smiles,measurement,setting,value
"CC(O)CCO (stereo not drawn) [1,3-butanediol]",vapor or sublimation pressure,"288.3 K, Liquid",0.00139 ± 0.0001 kPa
same,vapor or sublimation pressure,"290.3 K, Liquid",0.00168 ± 0.00012 kPa
same,vapor or sublimation pressure,"292.9 K, Liquid",0.00235 ± 0.00017 kPa
same,vapor or sublimation pressure,"303.5 K, Liquid",0.00651 ± 0.00046 kPa
same,vapor or sublimation pressure,"308.3 K, Liquid",0.00994 ± 0.00071 kPa
same,vapor or sublimation pressure,"311.3 K, Liquid",0.01301 ± 0.00094 kPa
same,vapor or sublimation pressure,"314.3 K, Liquid",0.01723 ± 0.0012 kPa
same,vapor or sublimation pressure,"317.3 K, Liquid",0.02182 ± 0.0016 kPa
same,vapor or sublimation pressure,"320.3 K, Liquid",0.02852 ± 0.0021 kPa
same,vapor or sublimation pressure,"323.3 K, Liquid",0.03664 ± 0.0026 kPa
same,vapor or sublimation pressure,"326.3 K, Liquid",0.04618 ± 0.0033 kPa
same,vapor or sublimation pressure,"329.3 K, Liquid",0.05855 ± 0.0042 kPa
same,vapor or sublimation pressure,"332.3 K, Liquid",0.07427 ± 0.0053 kPa
"CC(C)(CO)CO [2,2-dimethyl-1,3-propanediol]",vapor or sublimation pressure,"283.9 K, Crystal 2",0.00029 ± 2e-05 kPa
same,vapor or sublimation pressure,"288.5 K, Crystal 2",0.00052 ± 4e-05 kPa
same,vapor or sublimation pressure,"291.2 K, Crystal 2",0.00074 ± 6e-05 kPa
same,vapor or sublimation pressure,"295.2 K, Crystal 2",0.00119 ± 9e-05 kPa
same,vapor or sublimation pressure,"298.4 K, Crystal 2",0.00174 ± 0.00013 kPa
same,vapor or sublimation pressure,"301.7 K, Crystal 2",0.00261 ± 0.00019 kPa
same,vapor or sublimation pressure,"304.7 K, Crystal 2",0.00367 ± 0.00027 kPa
same,vapor or sublimation pressure,"307.9 K, Crystal 2",0.00535 ± 0.00039 kPa
same,vapor or sublimation pressure,"309.4 K, Crystal 2",0.00615 ± 0.00044 kPa
same,vapor or sublimation pressure,"311.3 K, Crystal 2",0.00735 ± 0.00053 kPa
same,vapor or sublimation pressure,"314.3 K, Crystal 1",0.01057 ± 0.00077 kPa
same,vapor or sublimation pressure,"317.3 K, Crystal 1",0.01416 ± 0.001 kPa
same,vapor or sublimation pressure,"320.2 K, Crystal 1",0.01849 ± 0.0013 kPa
same,vapor or sublimation pressure,"323.4 K, Crystal 1",0.02447 ± 0.0018 kPa
same,vapor or sublimation pressure,"326.4 K, Crystal 1",0.03147 ± 0.0023 kPa
same,vapor or sublimation pressure,"329.4 K, Crystal 1",0.04056 ± 0.0029 kPa
same,vapor or sublimation pressure,"332.3 K, Crystal 1",0.05153 ± 0.0037 kPa
same,vapor or sublimation pressure,"335.3 K, Crystal 1",0.06721 ± 0.0048 kPa
same,vapor or sublimation pressure,"338.2 K, Crystal 1",0.08442 ± 0.006 kPa
same,vapor or sublimation pressure,"341.2 K, Crystal 1",0.1056 ± 0.0075 kPa
same,vapor or sublimation pressure,"344.2 K, Crystal 1",0.1314 ± 0.0094 kPa
same,vapor or sublimation pressure,"347.2 K, Crystal 1",0.1654 ± 0.012 kPa
"CC(O)CC(C)O (stereo not drawn) [2,4-pentanediol]",vapor or sublimation pressure,"297.2 K, Liquid",0.0048 ± 0.00035 kPa
same,vapor or sublimation pressure,"300.2 K, Liquid",0.00645 ± 0.00047 kPa
same,vapor or sublimation pressure,"303.2 K, Liquid",0.0085 ± 0.00061 kPa
same,vapor or sublimation pressure,"306.2 K, Liquid",0.0111 ± 0.0008 kPa
same,vapor or sublimation pressure,"309.2 K, Liquid",0.01453 ± 0.001 kPa
same,vapor or sublimation pressure,"312.2 K, Liquid",0.01892 ± 0.0014 kPa
same,vapor or sublimation pressure,"315.3 K, Liquid",0.0239 ± 0.0017 kPa
same,vapor or sublimation pressure,"318.4 K, Liquid",0.03119 ± 0.0022 kPa
same,vapor or sublimation pressure,"321.4 K, Liquid",0.04095 ± 0.003 kPa
same,vapor or sublimation pressure,"324.4 K, Liquid",0.05507 ± 0.004 kPa
same,vapor or sublimation pressure,"327.5 K, Liquid",0.07024 ± 0.005 kPa
same,vapor or sublimation pressure,"330.5 K, Liquid",0.08735 ± 0.0062 kPa
same,vapor or sublimation pressure,"333.4 K, Liquid",0.1096 ± 0.0078 kPa
same,vapor or sublimation pressure,"336.5 K, Liquid",0.1376 ± 0.0098 kPa
same,vapor or sublimation pressure,"339.2 K, Liquid",0.1648 ± 0.012 kPa
same,vapor or sublimation pressure,"344.4 K, Liquid",0.2419 ± 0.017 kPa
same,vapor or sublimation pressure,"347.3 K, Liquid",0.2929 ± 0.021 kPa
"CC(O)CC(C)(C)O (stereo not drawn) [2-methyl-2,4-pentanediol]",vapor or sublimation pressure,"285.2 K, Liquid",0.0025 ± 0.00018 kPa
same,vapor or sublimation pressure,"287.9 K, Liquid",0.00333 ± 0.00024 kPa
same,vapor or sublimation pressure,"291.2 K, Liquid",0.00474 ± 0.00034 kPa
same,vapor or sublimation pressure,"294.2 K, Liquid",0.00648 ± 0.00047 kPa
same,vapor or sublimation pressure,"297.2 K, Liquid",0.00858 ± 0.00062 kPa
same,vapor or sublimation pressure,"300.2 K, Liquid",0.01147 ± 0.00082 kPa
same,vapor or sublimation pressure,"303.2 K, Liquid",0.01471 ± 0.0011 kPa
same,vapor or sublimation pressure,"306.5 K, Liquid",0.01997 ± 0.0014 kPa
same,vapor or sublimation pressure,"309.4 K, Liquid",0.02565 ± 0.0018 kPa
same,vapor or sublimation pressure,"312.5 K, Liquid",0.03274 ± 0.0023 kPa
same,vapor or sublimation pressure,"315.2 K, Liquid",0.04092 ± 0.0029 kPa
same,vapor or sublimation pressure,"318.2 K, Liquid",0.05208 ± 0.0037 kPa
same,vapor or sublimation pressure,"321.2 K, Liquid",0.06475 ± 0.0046 kPa
same,vapor or sublimation pressure,"323.3 K, Liquid",0.07752 ± 0.0055 kPa
same,vapor or sublimation pressure,"326.3 K, Liquid",0.09448 ± 0.0067 kPa
same,vapor or sublimation pressure,"329.4 K, Liquid",0.1239 ± 0.0088 kPa
"OCCCO [propan-1,3-diol]",vapor or sublimation pressure,"293.5 K, Liquid",0.00186 ± 0.00014 kPa
same,vapor or sublimation pressure,"303.2 K, Liquid",0.00447 ± 0.00032 kPa
same,vapor or sublimation pressure,"309.3 K, Liquid",0.00788 ± 0.00056 kPa
same,vapor or sublimation pressure,"312.2 K, Liquid",0.00997 ± 0.00072 kPa
same,vapor or sublimation pressure,"315.3 K, Liquid",0.01329 ± 0.00095 kPa
same,vapor or sublimation pressure,"318.4 K, Liquid",0.01659 ± 0.0012 kPa
same,vapor or sublimation pressure,"321.3 K, Liquid",0.02168 ± 0.0016 kPa
same,vapor or sublimation pressure,"324.3 K, Liquid",0.02764 ± 0.002 kPa
same,vapor or sublimation pressure,"327.3 K, Liquid",0.03558 ± 0.0025 kPa
same,vapor or sublimation pressure,"330.3 K, Liquid",0.04372 ± 0.0031 kPa
same,vapor or sublimation pressure,"333.5 K, Liquid",0.05556 ± 0.004 kPa
same,vapor or sublimation pressure,"336.4 K, Liquid",0.06842 ± 0.0049 kPa
same,vapor or sublimation pressure,"339.4 K, Liquid",0.08464 ± 0.006 kPa
same,vapor or sublimation pressure,"342.3 K, Liquid",0.1053 ± 0.0075 kPa
"CC(CO)CO [2-methyl-1,3-propanediol]",vapor or sublimation pressure,"297.3 K, Liquid",0.00204 ± 0.00015 kPa
same,vapor or sublimation pressure,"300.4 K, Liquid",0.00285 ± 0.00021 kPa
same,vapor or sublimation pressure,"303.4 K, Liquid",0.00364 ± 0.00026 kPa
same,vapor or sublimation pressure,"306.4 K, Liquid",0.0049 ± 0.00036 kPa
same,vapor or sublimation pressure,"309.4 K, Liquid",0.00661 ± 0.00048 kPa
same,vapor or sublimation pressure,"312.4 K, Liquid",0.00841 ± 0.0006 kPa
same,vapor or sublimation pressure,"312.5 K, Liquid",0.00861 ± 0.00061 kPa
same,vapor or sublimation pressure,"314.5 K, Liquid",0.00996 ± 0.00072 kPa
same,vapor or sublimation pressure,"316.4 K, Liquid",0.01205 ± 0.00086 kPa
same,vapor or sublimation pressure,"318.5 K, Liquid",0.0141 ± 0.001 kPa
same,vapor or sublimation pressure,"319.5 K, Liquid",0.01551 ± 0.0011 kPa
same,vapor or sublimation pressure,"321.4 K, Liquid",0.01842 ± 0.0013 kPa
same,vapor or sublimation pressure,"322.5 K, Liquid",0.01984 ± 0.0014 kPa
same,vapor or sublimation pressure,"323.5 K, Liquid",0.02169 ± 0.0015 kPa
same,vapor or sublimation pressure,"323.6 K, Liquid",0.02202 ± 0.0016 kPa
same,vapor or sublimation pressure,"326.4 K, Liquid",0.02689 ± 0.0019 kPa
same,vapor or sublimation pressure,"326.6 K, Liquid",0.02817 ± 0.002 kPa
same,vapor or sublimation pressure,"328.5 K, Liquid",0.03259 ± 0.0023 kPa
same,vapor or sublimation pressure,"328.6 K, Liquid",0.03396 ± 0.0024 kPa
same,vapor or sublimation pressure,"331.4 K, Liquid",0.04115 ± 0.0029 kPa
same,vapor or sublimation pressure,"333.4 K, Liquid",0.0469 ± 0.0034 kPa
same,vapor or sublimation pressure,"336.3 K, Liquid",0.05931 ± 0.0043 kPa
same,vapor or sublimation pressure,"338.6 K, Liquid",0.07262 ± 0.0052 kPa
same,vapor or sublimation pressure,"341.4 K, Liquid",0.08656 ± 0.0061 kPa
same,vapor or sublimation pressure,"342.6 K, Liquid",0.09448 ± 0.0069 kPa
same,vapor or sublimation pressure,"343.5 K, Liquid",0.1068 ± 0.0079 kPa
same,vapor or sublimation pressure,"347.6 K, Liquid",0.1379 ± 0.0098 kPa
same,vapor or sublimation pressure,"349.3 K, Liquid",0.1589 ± 0.011 kPa
same,vapor or sublimation pressure,"352.5 K, Liquid",0.1921 ± 0.014 kPa
same,vapor or sublimation pressure,"355.4 K, Liquid",0.2407 ± 0.017 kPa
same,vapor or sublimation pressure,"357.5 K, Liquid",0.2643 ± 0.019 kPa
